Laboratory results: patent publication US20250099532A1, “METHODS OF TREATMENT USING OXYTOCIN” (Belnap Pharmaceuticals, LLC, priority 2022, published 2025)

Tests used:
patients = assay: Clinical observations in treated patients; format: in vivo, human
Source text: It is imperative that patients get as quickly to the positive zone as possible. […] Anxiety is a major contributor to chronic inflammation, which decreases BDNF and the continued loss of synaptic connections.

depression = conditions: after a single administration; cited from earlier work

| SMILES | duration of positive effects of a series of infusions (patients; IV ketamine alone, series of infusions (e.g., six)) | relief of anxiety compared with depression (patients; patients, ketamine treatments alone) | begin of antidepressant effects post-infusion (depression) [min] | loss of superiority to placebo post-infusion (depression) [days] | peak of antidepressant effects (depression) | time the patient continued to stay sober (patients; Patient 3 (alcoholic), patient attributes it to the addition of oxytocin) [months] | response of the patient's anxiety with oxytocin compared with ketamine treatment alone (patients; Patient 10 (PTSD, Depression, and Anxiety)) | recovery from anxiety compared with ketamine infusions alone (patients; patients, addition of oxytocin treatment) | ketamine experience when oxytocin is administered prior to the ketamine treatment (patients; patients, oxytocin before ketamine) | recovery from depression and anxiety compared with ketamine alone (patients; patients, oxytocin prior to ketamine treatment) |
| --- | --- | --- | --- | --- | --- | --- | --- | --- | --- | --- |
| CNC1(c2ccccc2Cl)CCCCC1=O (racemic) [ketamine, Ketamine (racemic)] | one month to several (e.g., 4-6) months | a lot slower | 40 | 10 to 12 | approximately 24 h |  |  |  |  |  |
| CC[C@H](C)[C@@H]1NC(=O)[C@H](Cc2ccc(O)cc2)NC(=O)[C@@H](N)CSSC[C@@H](C(=O)N2CCC[C@H]2C(=O)N[C@@H](CC(C)C)C(=O)NCC(N)=O)NC(=O)[C@H](CC(N)=O)NC(=O)[C@H](CCC(N)=O)NC1=O [oxytocin] |  |  |  |  |  | 18 | much quicker | much quicker recovery | much more calm and euphoric ketamine experience | recovering much more quickly |
